Several values for one entry are separate records, joined by “and”; a condition that tells them apart may be missing. Identical values can stand only once. Square brackets hold non-standard residues; d marks the D form. Peptide text beside a SMILES is read from it. * marks the point of attachment. Tyr(Nα,Nα-allyl2) = C=CCN(CC=C)[C@@H](Cc1ccc(O)cc1)C(=O)*; Tic = O=C(O)[C@@H]1Cc2ccccc2CN1; Aib = CC(C)(N)C(=O)O
Target: Delta-type opioid receptor (Homo sapiens, UniProt P41143)
Sequence (P41143 whole entry): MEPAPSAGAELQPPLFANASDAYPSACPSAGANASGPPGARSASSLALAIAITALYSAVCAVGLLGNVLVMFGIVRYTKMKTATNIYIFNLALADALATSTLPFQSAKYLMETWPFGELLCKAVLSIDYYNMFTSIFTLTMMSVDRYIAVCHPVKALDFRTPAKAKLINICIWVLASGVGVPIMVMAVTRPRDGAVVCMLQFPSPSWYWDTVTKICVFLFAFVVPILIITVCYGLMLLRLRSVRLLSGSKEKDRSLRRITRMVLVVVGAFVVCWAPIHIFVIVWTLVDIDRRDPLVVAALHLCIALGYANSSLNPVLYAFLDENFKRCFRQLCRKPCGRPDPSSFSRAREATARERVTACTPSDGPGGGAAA

Q: How did the Ki turn out when C=CCN(CC=C)[C@@H](Cc1ccc(O)cc1)C(=O)NC(C)(C)C(=O)NC(C)(C)C(=O)N[C@@H](Cc1ccccc1)C(=O)N[C@@H](CC(C)C)C(=O)O [NSC_107691] ({Tyr(Nα,Nα-allyl2)}-[Aib][Aib]FL-OH) was run?
A: 304 nM

Q: For N[C@@H](Cc1ccc(O)cc1)C(=O)N1Cc2ccccc2C[C@H]1C(=O)N[C@@H](Cc1ccccc1)C(=O)N[C@@H](Cc1ccccc1)C(=O)O [TIPP] (H-Y[Tic]FF-OH), which Ki is on record?
A: 5.8 nM and 3.02 nM

Reference: BindingDB's records for doi:10.1124/jpet.301.2.661 (University of Arkansas, 2002)
